Test results from patent US20080139558A1, “QUINOLONES USEFUL AS INDUCIBLE NITRIC OXIDE SYNTHASE INHIBITORS” (KALYPSYS, INC., priority 2006, published 2008).

Molecular target: T1, human iNOS (Homo sapiens, UniProt P35228)
T1 construct: expressed in transfected cells; host or cells: HEK293
Assay: DAN assay of nitric oxide production (hiNOS)
Assay type: cell-based
Conditions: enzyme expressed in HEK293 cells transiently transfected with human iNOS
Text: The source of nitric oxide synthase (NOS) enzyme can be generated in several ways including induction of endogenous iNOS using cytokines and/or lipopolysaccharide (LPS) in various cell types known in the art. Alternatively, the gene encoding the enzyme can be cloned and the enzyme can be generated in cells via heterologous expression from a transient or stable expression plasmid with suitable features for protein expression as are known in the art. Enzymatic activity (nitric oxide production) is calcium independent for iNOS, while the constitutive NOS isoforms, nNOS and eNOS, become active with the addition of various cofactors added to cellular media or extract as are well known in the art. Enzymes specified in Table 1 were expressed in HEK293 cells transiently transfected with human iNOS.
A major metabolic pathway for nitric oxide is to nitrate and nitrite, which are stable metabolites within tissue culture, tissue, plasma, and urine (S Moncada, A Higgs, N Eng J Med 329, 2002 (1993)).
The level of nitrate or nitrite in the specimen can be quantified by any method known in the art which provides adequate sensitivity and reproducibility. A variety of protocols have also been described for detecting and quantifying nitrite and nitrate levels in biological fluids by ion chromatography (e.g., A Everett et al., J. Chromatogr. 706, 437 (1995); J M Monaghan et al., J. Chromatogr. 770, 143 (1997)), high-performance liquid chromatography (e.g., M Kelm et al., Cardiovasc. Res. 41, 765 (1999)), and capillary electrophoresis (MA Friedberg et al., J. Chromatogr. 781, 491 (1997)). For example, 2,3-diaminonaphthalene reacts with the nitrosonium cation that forms spontaneously from NO to form the fluorescent product 1H-naphthotriazole. Using 2,3-diaminonaphthalene (“DAN”), researchers have developed a rapid, quantitative fluorometric assay that can detect from 10 nM to 10 μM nitrite and is compatible with a multi-well microplate format. […] DAN reacts with nitrite ion and gives fluorescent naphthotriazole (MC Carré et al., Analusis 27, 835-838 (1999)). Table 1 provides the test results of various compounds of the subject invention using the DAN assay.
A specimen can be processed prior to determination of nitrate or nitrite as required by the quantification method, or in order to improve the results, or for the convenience of the investigator. For example, processing can involve centrifuging, filtering, or homogenizing the sample. If the sample is whole blood, the blood can be centrifuged to remove cells and the nitrate or nitrite assay performed on the plasma or serum fraction. If the sample is tissue, the tissue can be dispersed or homogenized by any method known in the art prior to determination of nitrate or nitrite. It may be preferable to remove cells and other debris by centrifugation or another method and to determine the nitrate or nitrite level using only the fluid portion of the sample, or the extracellular fluid fraction of the sample. The sample can also be preserved for later determination, for example by freezing of urine or plasma samples. When appropriate, additives may be introduced into the specimen to preserve or improve its characteristics for use in the nitrate or nitrite assay.
The “level” of nitrate, nitrite, or other NO-related product usually refers to the concentration (in moles per liter, micromoles per liter, or other suitable units) of nitrate or nitrite in the specimen, or in the fluid portion of the specimen. However, other units of measure can also be used to express the level of nitrate or nitrite. For example, an absolute amount (in micrograms, milligrams, nanomoles, moles, or other suitable units) can be used, particularly if the amount refers back to a constant amount (e.g., grams, kilograms, milliliters, liters, or other suitable units) of the specimens under consideration. A number of commercially available kits can be used. […]

T1 sequence (P35228 whole entry): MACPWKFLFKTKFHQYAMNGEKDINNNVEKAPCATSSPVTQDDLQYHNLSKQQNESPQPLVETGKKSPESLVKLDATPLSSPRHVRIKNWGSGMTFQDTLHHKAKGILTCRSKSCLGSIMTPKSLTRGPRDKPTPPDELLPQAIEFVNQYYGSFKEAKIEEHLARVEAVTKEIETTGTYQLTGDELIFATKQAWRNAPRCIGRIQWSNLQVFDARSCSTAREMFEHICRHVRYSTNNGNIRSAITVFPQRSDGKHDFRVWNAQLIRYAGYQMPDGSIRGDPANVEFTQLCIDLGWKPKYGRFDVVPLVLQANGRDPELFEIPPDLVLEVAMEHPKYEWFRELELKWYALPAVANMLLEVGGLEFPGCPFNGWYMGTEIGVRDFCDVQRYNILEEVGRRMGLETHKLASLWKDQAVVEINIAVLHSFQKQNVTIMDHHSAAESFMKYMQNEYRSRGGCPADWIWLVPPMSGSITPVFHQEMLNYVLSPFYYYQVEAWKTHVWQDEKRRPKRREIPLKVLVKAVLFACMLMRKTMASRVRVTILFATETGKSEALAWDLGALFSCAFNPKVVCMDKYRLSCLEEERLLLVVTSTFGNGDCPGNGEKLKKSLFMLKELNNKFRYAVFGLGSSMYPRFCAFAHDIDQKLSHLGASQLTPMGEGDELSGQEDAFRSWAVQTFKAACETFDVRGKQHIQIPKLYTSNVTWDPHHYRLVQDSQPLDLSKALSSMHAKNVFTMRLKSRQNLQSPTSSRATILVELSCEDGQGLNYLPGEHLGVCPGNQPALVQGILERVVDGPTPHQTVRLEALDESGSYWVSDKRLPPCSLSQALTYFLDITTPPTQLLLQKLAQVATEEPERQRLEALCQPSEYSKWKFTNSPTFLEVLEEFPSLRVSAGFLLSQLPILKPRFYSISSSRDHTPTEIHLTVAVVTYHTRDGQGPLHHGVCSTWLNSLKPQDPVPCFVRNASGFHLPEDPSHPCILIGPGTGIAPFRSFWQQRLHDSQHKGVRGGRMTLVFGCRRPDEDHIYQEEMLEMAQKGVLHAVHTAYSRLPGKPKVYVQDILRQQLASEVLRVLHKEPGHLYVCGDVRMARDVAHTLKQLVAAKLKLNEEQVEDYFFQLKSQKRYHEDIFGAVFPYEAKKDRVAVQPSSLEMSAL

Compound | EC50 [µM]
O=C(c1cscn1)N(Cc1cc(=O)[nH]c2ccccc12)c1ccccc1 [Example 28, N-((2-Oxo-1,2-dihydroquinolin-4-yl)methyl)-N-phenylthiazole-4-carboxamide] | > 5
Cc1ncsc1C(=O)N(Cc1cc(=O)[nH]c2ccccc12)c1ccccc1 [Example 29, 4-Methyl-N-((2-oxo-1,2-dihydroquinolin-4-yl)methyl)-N-phenylthiazole-5-carboxamide] | > 5
Cc1noc(C)c1C(=O)N(Cc1cc(=O)[nH]c2ccccc12)c1ccccc1 [Example 30, 3,5-Dimethyl-N-((2-oxo-1,2-dihydroquinolin-4-yl)methyl)-N-phenylisoxazole-4-carboxamide] | > 5
Cc1oncc1C(=O)N(Cc1cc(=O)[nH]c2ccccc12)c1ccccc1 [Example 31, 5-Methyl-N-((2-oxo-1,2-dihydroquinolin-4-yl)methyl)-N-phenylisoxazole-4-carboxamide] | > 5
O=C(c1ccccn1)N(Cc1cc(=O)[nH]c2ccccc12)c1ccccc1 [Example 32, N-((2-Oxo-1,2-dihydroquinolin-4-yl)methyl)-N-phenylpicolinamide] | > 5
O=C(c1cccnc1)N(Cc1cc(=O)[nH]c2ccccc12)c1ccccc1 [Example 33, N-((2-Oxo-1,2-dihydroquinolin-4-yl)methyl)-N-phenylnicotinamide] | > 5
O=C(c1ccncc1)N(Cc1cc(=O)[nH]c2ccccc12)c1ccccc1 [Example 34, N-((2-Oxo-1,2-dihydroquinolin-4-yl)methyl)-N-phenylisonicotinamide] | > 5
Cc1cnc(C(=O)N(Cc2cc(=O)[nH]c3ccccc23)c2ccccc2)cn1 [Example 35, 5-Methyl-N-((2-oxo-1,2-dihydroquinolin-4-yl)methyl)-N-phenylpyrazine-2-carboxamide] | ≤ 5
O=C(c1cnccn1)N(Cc1cc(=O)[nH]c2ccccc12)c1ccccc1 [Example 36, N-((2-Oxo-1,2-dihydroquinolin-4-yl)methyl)-N-phenylpyrazine-2-carboxamide] | > 5
Cc1ncccc1C(=O)N(Cc1cc(=O)[nH]c2ccccc12)c1ccccc1 [Example 37, 2-Methyl-N-((2-oxo-1,2-dihydroquinolin-4-yl)methyl)-N-phenylnicotinamide] | ≤ 5
Cc1cccnc1C(=O)N(Cc1cc(=O)[nH]c2ccccc12)c1ccccc1 [Example 38, 3-Methyl-N-((2-oxo-1,2-dihydroquinolin-4-yl)methyl)-N-phenylpicolinamide] | > 5
Cc1ncsc1C(=O)N(Cc1cc(=O)[nH]c2ccccc12)c1ccc(F)c(Cl)c1 [Example 39, N-(3-Chloro-4-fluorophenyl)-4-methyl-N-((2-oxo-1,2-dihydroquinolin-4-yl)methyl)thiazole-5-carboxamide] | > 5
Cc1ncsc1C(=O)N(Cc1cc(=O)[nH]c2ccccc12)c1cccc(C(F)(F)F)c1 [Example 40, 4-Methyl-N-((2-oxo-1,2-dihydroquinolin-4-yl)methyl)-N-(3-(trifluoromethyl)phenyl)thiazole-5-carboxamide] | > 5
Cc1ncsc1C(=O)N(Cc1cc(=O)[nH]c2ccccc12)c1ccc(F)c(F)c1 [Example 41] | > 5
Cc1ncsc1S(=O)(=O)N(Cc1cc(=O)[nH]c2c(F)cccc12)c1cccc(Cl)c1 [Example 42, N-(3-Chlorophenyl)-N-((8-fluoro-2-oxo-1,2-dihydroquinolin-4-yl)methyl)-4-methylthiazole-5-sulfonamide] | ≤ 5
Cc1ncsc1C(=O)N(Cc1cc(=O)[nH]c2c(F)ccc(C)c12)c1cccc(Cl)c1 [Example 50, N-(3-Chlorophenyl)-N-((8-fluoro-5-methyl-2-oxo-1,2-dihydroquinolin-4-yl)methyl)-4-methylthiazole-5-carboxamide] | > 5
Cc1ncsc1C(=O)N(Cc1cc(=O)[nH]c2cc(F)ccc12)c1cccc(Cl)c1 [Example 51, N-(3-Chlorophenyl)-N-((7-fluoro-2-oxo-1,2-dihydroquinolin-4-yl)methyl)-4-methylthiazole-5-carboxamide] | > 5
Cc1ncsc1C(=O)N(Cc1cc(=O)[nH]c2c(F)ccc(F)c12)c1cccc(Cl)c1 [Example 52, N-(3-Chlorophenyl)-N-((5,8-difluoro-2-oxo-1,2-dihydroquinolin-4-yl)methyl)-4-methylthiazole-5-carboxamide] | > 5

The remaining lines, values ahead:

EC50 [µM] | Compound
> 5 | Cc1ncsc1C(=O)N(Cc1cc(=O)[nH]c2c(F)cccc12)c1cccc(Cl)c1 [Example 43, N-(3-Chlorophenyl)-N-((8-fluoro-2-oxo-1,2-dihydroquinolin-4-yl)methyl)-4-methylthiazole-5-carboxamide]
> 5 | O=C(c1cncs1)N(Cc1cc(=O)[nH]c2c(F)cccc12)c1cccc(Cl)c1 [Example 44, N-(3-Chlorophenyl)-N-((8-fluoro-2-oxo-1,2-dihydroquinolin-4-yl)methyl)thiazole-5-carboxamide]
≤ 5 | Cc1ncsc1CN(Cc1cc(=O)[nH]c2c(F)cccc12)c1cccc(Cl)c1 [Example 45, 4-(((3-Chlorophenyl)((4-methylthiazol-5-yl)methyl)amino)methyl)-8-fluoroquinolin-2(1H)-one]
> 5 | Cn1cnc(C(=O)N(Cc2cc(=O)[nH]c3c(F)cccc23)c2cccc(Cl)c2)c1 [Example 46, N-(3-Chlorophenyl)-N-((8-fluoro-2-oxo-1,2-dihydroquinolin-4-yl)methyl)-1-methyl-1H-imidazole-4-carboxamide]
> 5 | Cn1ccnc1C(=O)N(Cc1cc(=O)[nH]c2c(F)cccc12)c1cccc(Cl)c1 [Example 47, N-(3-Chlorophenyl)-N-((8-fluoro-2-oxo-1,2-dihydroquinolin-4-yl)methyl)-1-methyl-1H-imidazole-2-carboxamide]
> 5 | Cn1cncc1C(=O)N(Cc1cc(=O)[nH]c2c(F)cccc12)c1cccc(Cl)c1 [Example 48, N-(3-Chlorophenyl)-N-((8-fluoro-2-oxo-1,2-dihydroquinolin-4-yl)methyl)-1-methyl-1H-imidazole-5-carboxamide]
> 5 | Cc1ncsc1C(=O)N(Cc1cc(=O)[nH]c2c(Cl)cccc12)c1cccc(Cl)c1 [Example 49, N-((8-Chloro-2-oxo-1,2-dihydroquinolin-4-yl)methyl)-N-(3-chlorophenyl)-4-methylthiazole-5-carboxamide]
≤ 5 | Cc1ncsc1C(=O)N(Cc1cc(=O)[nH]c2c(F)c(F)ccc12)c1cccc(Cl)c1 [Example 53, N-(3-Chlorophenyl)-N-((7,8-difluoro-2-oxo-1,2-dihydroquinolin-4-yl)methyl)-4-methylthiazole-5-carboxamide]
> 5 | O=C(c1ccccc1F)N(Cc1cc(=O)[nH]c2c(F)cccc12)c1cccc(Cl)c1 [Example 54, N-(3-Chlorophenyl)-2-fluoro-N-((8-fluoro-2-oxo-1,2-dihydroquinolin-4-yl)methyl)benzamide]
> 5 | O=C(c1cccc(F)c1)N(Cc1cc(=O)[nH]c2c(F)cccc12)c1cccc(Cl)c1 [Example 55, N-(3-Chlorophenyl)-3-fluoro-N-((8-fluoro-2-oxo-1,2-dihydroquinolin-4-yl)methyl)benzamide]
> 5 | O=C(c1ccc(F)cc1)N(Cc1cc(=O)[nH]c2c(F)cccc12)c1cccc(Cl)c1 [Example 56, N-(3-Chlorophenyl)-4-fluoro-N-((8-fluoro-2-oxo-1,2-dihydroquinolin-4-yl)methyl)benzamide]
> 5 | Cc1ccccc1C(=O)N(Cc1cc(=O)[nH]c2c(F)cccc12)c1cccc(Cl)c1 [Example 57, N-(3-Chlorophenyl)-N-((8-fluoro-2-oxo-1,2-dihydroquinolin-4-yl)methyl)-2-methylbenzamide]
